Measured values from ChEMBL document CHEMBL3885881, “DrugMatrix”.

Species: Rattus norvegicus
Test: DrugMatrix - Regimen: Daily Repeat
Format: toxicity, organism-based, Sprague-Dawley
Set-up: regimen Daily Repeat, gender Male, age 6-8 weeks
Settings: in vivo, po, route oral GAVAGE, vehicle 100 % WATER; for ABSOLUTE BASOPHIL / ABSOLUTE EOSINOPHIL / ABSOLUTE LYMPHOCYTE / ABSOLUTE MONOCYTE / ABSOLUTE SEGMENTED NEUTROPHIL / BASOPHIL / EOSINOPHIL / ERYTHROCYTE COUNT / HEMATOCRIT / HEMOGLOBIN / LEUKOCYTE COUNT / LYMPHOCYTE / MEAN CORPUSCULAR HEMOGLOBIN / MEAN CORPUSCULAR HEMOGLOBIN CONCENTRATION / MEAN CORPUSCULAR VOLUME / MONOCYTE / NEUTROPHIL / NUCLEATED RED BLOOD CELLS / PLATELET COUNT: tissue Blood; for ALANINE AMINOTRANSFERASE / ALBUMIN / ALKALINE PHOSPHATASE / ASPARTATE AMINOTRANSFERASE / BLOOD UREA NITROGEN / CARBON DIOXIDE / CHLORIDE / CHOLESTEROL / CREATINE PHOSPHOKINASE / CREATININE / GLUCOSE / LACTATE DEHYDROGENASE / LIPASE / PHOSPHORUS / POTASSIUM / SODIUM / TOTAL BILIRUBIN / TOTAL PROTEIN / URIC ACID: tissue Plasma
[1] = 15 mg/kg, 120 h, dose level Low, time 5 day
[2] = 79 mg/kg, 72 h, dose level High, time 3 day
[3] = 79 mg/kg, 120 h, dose level High, time 5 day

## NNC(=O)c1ccncc1 [ISONIAZID]
[1]
  ABSOLUTE BASOPHIL: 0 CELLS/uL
  ABSOLUTE EOSINOPHIL: 0 CELLS/uL
  ABSOLUTE LYMPHOCYTE: 13245.33 CELLS/uL
  ABSOLUTE MONOCYTE: 507 CELLS/uL
  ABSOLUTE SEGMENTED NEUTROPHIL: 1614.33 CELLS/uL
  BASOPHIL: 0%
  EOSINOPHIL: 0%
  ERYTHROCYTE COUNT: 5.42 x10E6/uL
  HEMATOCRIT: 33.8%
  HEMOGLOBIN: 12.8 G/DL
  LEUKOCYTE COUNT: 15.37 x10E3/uL
  LYMPHOCYTE: 85%
  MEAN CORPUSCULAR HEMOGLOBIN: 23.67 pg
  MEAN CORPUSCULAR HEMOGLOBIN CONCENTRATION: 37.9 G/DL
  MEAN CORPUSCULAR VOLUME: 62.47 fL
  MONOCYTE: 3.33%
  NEUTROPHIL: 11.67%
  NUCLEATED RED BLOOD CELLS: 0 /100WBC
  PLATELET COUNT: 1239.67 x10E3/uL
  ALANINE AMINOTRANSFERASE: 47 u/L
  ALBUMIN: 4.33 G/DL
  ALKALINE PHOSPHATASE: 384.67 u/L
  ASPARTATE AMINOTRANSFERASE: 85 u/L
  BLOOD UREA NITROGEN: 16.67 mg/dL
  CARBON DIOXIDE: 23.67 mmol/L
  CHLORIDE: 102.67 MEQ/L
  CHOLESTEROL: 76 mg/dL
  CREATINE PHOSPHOKINASE: 246.67 u/L
  CREATININE: 0.47 mg/dL
  GLUCOSE: 188.33 mg/dL
  LACTATE DEHYDROGENASE: 93.67 u/L
  LIPASE: 11 u/L
  PHOSPHORUS: 11.47 mg/dL
  POTASSIUM: 5.97 MEQ/L
  SODIUM: 146 MEQ/L
  TOTAL BILIRUBIN: 0.23 mg/dL
  TOTAL PROTEIN: 6.3 G/DL
  URIC ACID: 2.17 mg/dL
[2]
  ABSOLUTE BASOPHIL: 0 CELLS/uL
  ABSOLUTE EOSINOPHIL: 46.33 CELLS/uL
  ABSOLUTE LYMPHOCYTE: 10642.67 CELLS/uL
  ABSOLUTE MONOCYTE: 65.33 CELLS/uL
  ABSOLUTE SEGMENTED NEUTROPHIL: 779 CELLS/uL
  BASOPHIL: 0%
  EOSINOPHIL: 0.33%
  ERYTHROCYTE COUNT: 6 x10E6/uL
  HEMATOCRIT: 38.67%
  HEMOGLOBIN: 14.03 G/DL
  LEUKOCYTE COUNT: 11.53 x10E3/uL
  LYMPHOCYTE: 91.67%
  MEAN CORPUSCULAR HEMOGLOBIN: 23.4 pg
  MEAN CORPUSCULAR HEMOGLOBIN CONCENTRATION: 36.3 G/DL
  MEAN CORPUSCULAR VOLUME: 64.47 fL
  MONOCYTE: 0.67%
  NEUTROPHIL: 7.33%
  NUCLEATED RED BLOOD CELLS: 0 /100WBC
  PLATELET COUNT: 1065.67 x10E3/uL
  ALANINE AMINOTRANSFERASE: 19 u/L
  ALBUMIN: 4.9 G/DL
  ALKALINE PHOSPHATASE: 349 u/L
  ASPARTATE AMINOTRANSFERASE: 74.33 u/L
  BLOOD UREA NITROGEN: 22.67 mg/dL
  CARBON DIOXIDE: 25.67 mmol/L
  CHLORIDE: 101.67 MEQ/L
  CHOLESTEROL: 80 mg/dL
  CREATINE PHOSPHOKINASE: 463.67 u/L
  CREATININE: 0.29 mg/dL
  GLUCOSE: 227.33 mg/dL
  LACTATE DEHYDROGENASE: 268 u/L
  LIPASE: 9.67 u/L
  PHOSPHORUS: 14.17 mg/dL
  POTASSIUM: 7.15 MEQ/L
  SODIUM: 146.23 MEQ/L
  TOTAL BILIRUBIN: 0.13 mg/dL
  TOTAL PROTEIN: 6.77 G/DL
  URIC ACID: 3.97 mg/dL
[3]
  ABSOLUTE BASOPHIL: 0 CELLS/uL
  ABSOLUTE EOSINOPHIL: 53 CELLS/uL
  ABSOLUTE LYMPHOCYTE: 13139.33 CELLS/uL
  ABSOLUTE MONOCYTE: 527.33 CELLS/uL
  ABSOLUTE SEGMENTED NEUTROPHIL: 647 CELLS/uL
  BASOPHIL: 0%
  EOSINOPHIL: 0.33%
  ERYTHROCYTE COUNT: 5.87 x10E6/uL
  HEMATOCRIT: 36.03%
  HEMOGLOBIN: 13.4 G/DL
  LEUKOCYTE COUNT: 14.37 x10E3/uL
  LYMPHOCYTE: 91.67%
  MEAN CORPUSCULAR HEMOGLOBIN: 22.8 pg
  MEAN CORPUSCULAR HEMOGLOBIN CONCENTRATION: 37.17 G/DL
  MEAN CORPUSCULAR VOLUME: 61.33 fL
  MONOCYTE: 3.67%
  NEUTROPHIL: 4.33%
  NUCLEATED RED BLOOD CELLS: 0.33 /100WBC
  PLATELET COUNT: 1389.67 x10E3/uL
  ALANINE AMINOTRANSFERASE: 28 u/L
  ALBUMIN: 4.37 G/DL
  ALKALINE PHOSPHATASE: 359.67 u/L
  ASPARTATE AMINOTRANSFERASE: 83.67 u/L
  BLOOD UREA NITROGEN: 17 mg/dL
  CARBON DIOXIDE: 24.67 mmol/L
  CHLORIDE: 102.33 MEQ/L
  CHOLESTEROL: 63.67 mg/dL
  CREATINE PHOSPHOKINASE: 505 u/L
  CREATININE: 0.21 mg/dL
  GLUCOSE: 173 mg/dL
  LACTATE DEHYDROGENASE: 177.33 u/L
  LIPASE: 10.33 u/L
  PHOSPHORUS: 12.07 mg/dL
  POTASSIUM: 6.62 MEQ/L
  SODIUM: 143.8 MEQ/L
  TOTAL BILIRUBIN: 0.17 mg/dL
  TOTAL PROTEIN: 6.3 G/DL
  URIC ACID: 2.17 mg/dL
